Measured values taken from BigSolDB 2.1.

O=c1c2ccccc2nc2n1CCc1c-2[nH]c2ccccc12
solubility (mole fraction)
Conditions	283.15 K	288.15 K	293.15 K	298.15 K	303.15 K	308.15 K	313.15 K	318.15 K	323.15 K
in acetone	0.00069	0.00079	0.000929	0.00106	0.00122	0.00139	0.00158	0.0018	0.00205
in ethanol	0.000132	0.00016	0.000191	0.000229	0.000271	0.00032	0.000375	0.00044	0.000509
in isopropanol	7.46e-05	9.8e-05	0.000124	0.00016	0.000201	0.000257	0.000318	0.000396	0.000488
in methanol	6.1e-05	7.33e-05	8.79e-05	0.000105	0.000125	0.000148	0.000172	0.000201	0.000234
in water	1.45e-09	2.02e-09	2.84e-09	3.97e-09	5.49e-09	7.6e-09	1.04e-08	1.38e-08	1.85e-08
